Data set [1] is described as follows: Antiproliferative activity against human U87MG cells. It counts as functional, cell-based, U-87MG ATCC. As to conditions: U-87 MG.
The next data set concerns A549. Briefly: Antiproliferative activity against human A549 cells. Format: functional, cell-based.
The next data set relates to MDA-MB-468. Briefly: Antiproliferative activity against human MDA-MB-468 cells. Format: functional, cell-based.
Data set [2] has as its target Tyrosine-protein kinase ABL1 (Homo sapiens, UniProt P00519). Description: Inhibition of c-Abl (unknown origin).
Data set [3] is described as follows: Chromatographic hydrophobicity index, CHI of the compound by RP-HPLC method. It counts as physicochemical.
Data set [4] addresses High affinity nerve growth factor receptor (Homo sapiens, UniProt P04629). Briefly: Inhibition of TrkA (unknown origin).
The nature of data set [5]: Antiproliferative activity against human PC3 cells. Particulars: PC-3. It counts as functional, cell-based.
Data set [6] deals with Tyrosine-protein kinase Yes (Homo sapiens, UniProt P07947). Description: Inhibition of YES (unknown origin).
In data set [7] the target is Vascular endothelial growth factor receptor 2 (Homo sapiens, UniProt P35968). Briefly: Inhibition of KDR (unknown origin).
Data set [8] concerns the target Homeodomain-interacting protein kinase 1 (Homo sapiens, UniProt Q86Z02). Description: Inhibition of HIPK1 (unknown origin).
Data set [9] is described as follows: Antiproliferative activity against human HCT116 cells. Format: functional, cell-based. As to conditions: HCT-116.
A short description of data set [10]: Lipophilicity, logD of the compound at pH 7.4 by RP-HPLC method based chromatographic hydrophobicity index determination. It counts as physicochemical. Particulars: buffer.
Data set [11] has as its target Serine/threonine-protein kinase pim-1 (Homo sapiens, UniProt P11309). Briefly: Inhibition of PIM1 (unknown origin).
Data set [12] can be described thus: Efflux ratio in human Caco2 cells in presence of 1% BSA. It counts as ADME, cell-based. As to conditions: Caco-2.
Data set [13] is described as follows: Stability in mouse plasma assessed as parent compound remaining after 6 hrs. It counts as ADME, cell-free. Particulars: read-out: Stability.
For data set [14], the target named is Voltage-gated inwardly rectifying potassium channel KCNH2 (Homo sapiens, UniProt Q12809). Briefly: Binding affinity to human ERG.
Data set [15] is described as follows: Solubility in PBS buffer at pH 7.4 in presence of 1% BSA. As to conditions: PBS buffer with 1% BSA. It counts as physicochemical.
Data set [16] can be described thus: Stability in mouse liver microsomes assessed as parent compound remaining after 1 hr. As to conditions: read-out: Stability. It counts as ADME. (Microsomes from liver hold many membrane-bound enzymes, among them those of drug oxidation.)
Data set [17] in a line: Permeability from apical to basolateral side in human Caco2 cells in presence of 1% BSA. It counts as ADME, cell-based. Particulars: Caco-2, read-out: permeability.
Data set [18] in a line: Permeability from basolateral to apical side in human Caco2 cells in presence of 1% BSA. It counts as ADME, cell-based. As to conditions: Caco-2, read-out: permeability. On the technique in general: Passage across Caco-2 layers is used to estimate intestinal permeability.
A further data set has as its target Cytochrome P450 3A4 (Homo sapiens, UniProt P08684). Description: Inhibition of CYP3A4 (unknown origin). It counts as ADME.
Data set [19] addresses Mitogen-activated protein kinase 1 (Homo sapiens, UniProt P28482). Description: Inhibition of ERK2 (unknown origin).

The values that follow come from ChEMBL document CHEMBL3351448, “Discovery of (7-aryl-1,5-naphthyridin-2-yl)ureas as dual inhibitors of ERK2 and Aurora B kinases with antiproliferative activity against cancer cells” (Bioorg Med Chem Lett, 2014).

High affinity nerve growth factor receptor, sequence (P04629 whole entry): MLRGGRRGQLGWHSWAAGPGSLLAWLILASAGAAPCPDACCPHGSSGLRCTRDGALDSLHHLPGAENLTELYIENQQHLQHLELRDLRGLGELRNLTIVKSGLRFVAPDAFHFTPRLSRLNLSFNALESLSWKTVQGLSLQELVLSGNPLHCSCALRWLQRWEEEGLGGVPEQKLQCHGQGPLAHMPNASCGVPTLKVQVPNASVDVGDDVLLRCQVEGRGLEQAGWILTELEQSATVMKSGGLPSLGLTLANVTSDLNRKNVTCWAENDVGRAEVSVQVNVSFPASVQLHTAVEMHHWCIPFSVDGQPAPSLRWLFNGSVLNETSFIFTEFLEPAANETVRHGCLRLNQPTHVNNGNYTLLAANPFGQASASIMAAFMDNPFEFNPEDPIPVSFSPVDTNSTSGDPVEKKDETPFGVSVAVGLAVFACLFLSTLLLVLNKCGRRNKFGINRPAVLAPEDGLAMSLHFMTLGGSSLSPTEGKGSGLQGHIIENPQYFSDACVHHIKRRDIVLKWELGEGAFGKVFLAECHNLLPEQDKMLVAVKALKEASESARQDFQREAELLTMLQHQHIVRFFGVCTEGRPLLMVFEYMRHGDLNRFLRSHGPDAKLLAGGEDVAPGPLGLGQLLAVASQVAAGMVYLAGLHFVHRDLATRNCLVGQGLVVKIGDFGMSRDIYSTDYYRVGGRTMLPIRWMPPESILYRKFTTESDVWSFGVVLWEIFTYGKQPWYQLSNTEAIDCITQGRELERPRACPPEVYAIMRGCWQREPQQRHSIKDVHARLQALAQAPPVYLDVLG
Serine/threonine-protein kinase pim-1, sequence (P11309 whole entry): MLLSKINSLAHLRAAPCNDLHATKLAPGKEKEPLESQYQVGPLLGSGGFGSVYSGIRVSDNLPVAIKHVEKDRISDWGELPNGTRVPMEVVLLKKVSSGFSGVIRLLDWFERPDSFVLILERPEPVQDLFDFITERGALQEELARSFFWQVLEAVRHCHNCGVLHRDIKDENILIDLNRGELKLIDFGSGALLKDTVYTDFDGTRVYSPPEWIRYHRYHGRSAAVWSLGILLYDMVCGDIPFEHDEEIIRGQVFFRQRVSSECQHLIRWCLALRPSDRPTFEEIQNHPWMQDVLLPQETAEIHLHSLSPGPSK
Vascular endothelial growth factor receptor 2, sequence (P35968 whole entry): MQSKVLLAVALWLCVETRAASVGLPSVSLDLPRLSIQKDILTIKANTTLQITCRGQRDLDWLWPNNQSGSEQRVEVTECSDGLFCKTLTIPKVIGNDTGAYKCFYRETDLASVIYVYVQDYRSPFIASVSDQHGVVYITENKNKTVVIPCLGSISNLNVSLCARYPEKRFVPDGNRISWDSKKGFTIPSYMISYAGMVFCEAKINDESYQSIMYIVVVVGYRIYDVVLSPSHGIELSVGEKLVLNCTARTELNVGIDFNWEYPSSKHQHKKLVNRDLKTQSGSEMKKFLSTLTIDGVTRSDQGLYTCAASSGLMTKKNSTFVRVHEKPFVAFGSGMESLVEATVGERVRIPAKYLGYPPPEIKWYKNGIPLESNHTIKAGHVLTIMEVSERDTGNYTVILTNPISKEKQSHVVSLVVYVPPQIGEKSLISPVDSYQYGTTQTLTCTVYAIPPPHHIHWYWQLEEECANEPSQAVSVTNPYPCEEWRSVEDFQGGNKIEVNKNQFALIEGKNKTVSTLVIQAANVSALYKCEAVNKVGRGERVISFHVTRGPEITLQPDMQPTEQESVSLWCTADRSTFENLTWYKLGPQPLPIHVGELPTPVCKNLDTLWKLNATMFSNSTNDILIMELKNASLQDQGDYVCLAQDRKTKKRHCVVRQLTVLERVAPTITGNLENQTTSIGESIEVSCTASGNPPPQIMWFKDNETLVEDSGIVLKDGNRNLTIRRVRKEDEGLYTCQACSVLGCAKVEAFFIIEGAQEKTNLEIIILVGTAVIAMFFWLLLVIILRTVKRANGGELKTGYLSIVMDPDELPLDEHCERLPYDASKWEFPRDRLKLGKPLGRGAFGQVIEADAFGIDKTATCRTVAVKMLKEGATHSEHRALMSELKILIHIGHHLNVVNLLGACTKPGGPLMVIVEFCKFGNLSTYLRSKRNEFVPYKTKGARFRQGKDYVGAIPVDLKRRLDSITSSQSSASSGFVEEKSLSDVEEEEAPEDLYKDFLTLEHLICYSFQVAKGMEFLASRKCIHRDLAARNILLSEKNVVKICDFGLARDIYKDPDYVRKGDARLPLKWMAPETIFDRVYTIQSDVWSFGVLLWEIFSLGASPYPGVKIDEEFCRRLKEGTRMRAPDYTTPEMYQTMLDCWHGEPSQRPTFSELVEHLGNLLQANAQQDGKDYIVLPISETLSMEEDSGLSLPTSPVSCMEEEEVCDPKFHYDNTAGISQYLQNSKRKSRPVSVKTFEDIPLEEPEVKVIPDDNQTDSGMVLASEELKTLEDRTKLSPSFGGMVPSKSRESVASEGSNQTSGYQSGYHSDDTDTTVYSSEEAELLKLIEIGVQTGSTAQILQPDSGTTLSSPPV
Tyrosine-protein kinase Yes, sequence (P07947 whole entry): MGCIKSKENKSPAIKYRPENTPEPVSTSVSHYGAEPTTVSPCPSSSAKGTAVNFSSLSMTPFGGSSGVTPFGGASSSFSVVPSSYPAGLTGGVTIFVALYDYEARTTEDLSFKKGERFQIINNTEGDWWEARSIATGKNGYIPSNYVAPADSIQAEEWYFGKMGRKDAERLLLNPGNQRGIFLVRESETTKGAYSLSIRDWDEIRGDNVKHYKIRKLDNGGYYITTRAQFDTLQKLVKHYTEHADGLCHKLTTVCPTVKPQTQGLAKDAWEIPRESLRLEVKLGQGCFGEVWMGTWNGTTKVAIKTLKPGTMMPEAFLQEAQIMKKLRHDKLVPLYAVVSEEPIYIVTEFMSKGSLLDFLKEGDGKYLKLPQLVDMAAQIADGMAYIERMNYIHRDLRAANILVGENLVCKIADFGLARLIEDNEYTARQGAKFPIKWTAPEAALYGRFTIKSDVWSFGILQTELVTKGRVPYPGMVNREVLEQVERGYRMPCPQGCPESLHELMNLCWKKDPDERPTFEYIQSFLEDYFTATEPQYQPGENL
Tyrosine-protein kinase ABL1, sequence (P00519 whole entry): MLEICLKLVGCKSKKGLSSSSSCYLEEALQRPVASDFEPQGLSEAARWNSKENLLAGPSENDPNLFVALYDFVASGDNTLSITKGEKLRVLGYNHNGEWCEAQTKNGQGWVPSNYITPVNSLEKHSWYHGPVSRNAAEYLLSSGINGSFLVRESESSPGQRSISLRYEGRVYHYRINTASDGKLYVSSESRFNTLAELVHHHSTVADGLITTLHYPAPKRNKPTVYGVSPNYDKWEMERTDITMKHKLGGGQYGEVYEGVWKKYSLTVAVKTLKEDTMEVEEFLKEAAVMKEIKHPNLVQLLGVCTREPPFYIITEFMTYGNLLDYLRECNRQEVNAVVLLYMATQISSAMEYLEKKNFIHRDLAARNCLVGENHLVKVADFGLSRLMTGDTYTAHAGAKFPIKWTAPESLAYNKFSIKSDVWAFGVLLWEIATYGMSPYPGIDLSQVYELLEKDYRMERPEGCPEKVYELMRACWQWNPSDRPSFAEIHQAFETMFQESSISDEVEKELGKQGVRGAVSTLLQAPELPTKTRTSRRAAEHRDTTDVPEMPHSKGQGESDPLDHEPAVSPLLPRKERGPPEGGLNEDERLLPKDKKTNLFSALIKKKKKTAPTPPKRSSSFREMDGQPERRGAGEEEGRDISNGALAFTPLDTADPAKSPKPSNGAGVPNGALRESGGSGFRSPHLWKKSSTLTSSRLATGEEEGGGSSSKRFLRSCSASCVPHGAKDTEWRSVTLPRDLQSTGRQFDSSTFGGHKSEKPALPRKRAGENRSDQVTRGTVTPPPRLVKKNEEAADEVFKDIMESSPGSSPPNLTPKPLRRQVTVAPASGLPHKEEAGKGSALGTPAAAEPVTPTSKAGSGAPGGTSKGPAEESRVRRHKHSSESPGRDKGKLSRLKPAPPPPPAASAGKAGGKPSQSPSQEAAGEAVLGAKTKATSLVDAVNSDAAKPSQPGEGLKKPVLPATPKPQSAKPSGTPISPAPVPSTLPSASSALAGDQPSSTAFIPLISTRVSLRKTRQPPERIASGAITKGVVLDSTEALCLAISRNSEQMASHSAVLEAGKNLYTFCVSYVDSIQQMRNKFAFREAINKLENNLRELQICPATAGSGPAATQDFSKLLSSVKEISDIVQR
Mitogen-activated protein kinase 1, sequence (P28482 whole entry): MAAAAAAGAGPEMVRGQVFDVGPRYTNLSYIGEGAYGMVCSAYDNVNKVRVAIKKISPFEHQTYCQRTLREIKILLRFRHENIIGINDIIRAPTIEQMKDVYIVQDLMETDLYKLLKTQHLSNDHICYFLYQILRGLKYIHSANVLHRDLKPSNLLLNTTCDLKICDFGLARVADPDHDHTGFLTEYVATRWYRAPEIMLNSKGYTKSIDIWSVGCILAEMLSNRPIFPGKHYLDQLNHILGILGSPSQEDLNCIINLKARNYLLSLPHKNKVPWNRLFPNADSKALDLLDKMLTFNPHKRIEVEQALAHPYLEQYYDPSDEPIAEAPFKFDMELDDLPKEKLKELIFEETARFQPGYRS
Cytochrome P450 3A4, sequence (P08684 whole entry): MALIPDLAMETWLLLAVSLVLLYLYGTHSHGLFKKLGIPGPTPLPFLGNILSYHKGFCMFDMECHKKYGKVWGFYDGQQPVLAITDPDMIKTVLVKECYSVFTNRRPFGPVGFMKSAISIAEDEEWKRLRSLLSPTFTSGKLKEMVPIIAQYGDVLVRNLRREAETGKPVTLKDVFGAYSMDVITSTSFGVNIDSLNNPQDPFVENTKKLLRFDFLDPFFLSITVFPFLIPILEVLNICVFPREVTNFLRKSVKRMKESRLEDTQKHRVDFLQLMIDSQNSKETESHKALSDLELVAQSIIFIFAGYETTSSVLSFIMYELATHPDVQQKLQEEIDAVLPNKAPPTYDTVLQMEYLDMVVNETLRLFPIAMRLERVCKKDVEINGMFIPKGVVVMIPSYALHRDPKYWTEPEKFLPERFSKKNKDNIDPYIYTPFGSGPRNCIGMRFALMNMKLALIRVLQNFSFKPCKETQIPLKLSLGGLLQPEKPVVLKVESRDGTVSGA

The IC50 is the concentration that inhibits the measured activity by half. As a reminder, the chromatographic logD is a lipophilicity value derived from retention on a column. Consider `Cn1cc(-c2cnc3ccc(NC(=O)NCc4ccccc4)nc3c2)cn1`, for which the IC50 in data set [1] is > 50 µM; in the data set on A549, > 50 µM; in the data set with MDA-MB-468, > 50 µM; in data set [2], > 100 µM; in data set [4] it was > 100 µM; in data set [5], > 50 µM. Moreover, the IC50 in data set [6] was > 100 µM; in data set [7], > 100 µM; in [8], > 100 µM; in data set [9], 0.191 µM; in data set [11] it was > 31.6 µM. In addition, in [3], the CHI worked out at 69.4. Besides, in [10], the chromatographic logD was found to be 2.2.
By efflux ratio is commonly meant a quotient of directional permeabilities that is used to spot active efflux. The term solubility denotes the concentration that dissolves in the medium under given conditions. Turning to `Cn1cc(-c2cnc3ccc(NC(=O)NCCc4ccccc4)nc3c2)cn1`, the IC50 is > 50 µM in data set [1]; 1.8 µM in the data set on MDA-MB-468; > 100 µM in data set [2]; 12.7 µM in data set [4]; 26.9 µM in [6]; > 100 µM in data set [7]. In addition, the IC50 in data set [8] is > 100 µM; in data set [9], 1.2 µM; in [11], 32.5 µM. Moreover, the efflux ratio in data set [12] is 0.45. Moreover, the remaining at 6 h in data set [13] stood at 96.7%. The same compound showed a CHI in [3] of 71.6. Also, the INH in data set [14] is > 60 µM; at Cytochrome P450 3A4, > 100 µM. Further, in [15], the solubility came out at 3.9 µM. Moreover, the remaining at 1 h in data set [16] stood at 81.1%. In addition, the Papp A→B in data set [17] amounted to 64 ×10⁻⁶ cm/s. In addition, in data set [18], the Papp B→A is 29 ×10⁻⁶ cm/s. In [10], the chromatographic logD is 2.3.
In turn, `Cn1cc(-c2cnc3c(NC(=O)NC(C)(C)C)ccnc3c2)cn1` had an IC50 in data set [19] of 31.6 µM.
`CCNC(=O)Nc1ccc2ncc(-c3ccc(OC)cc3)cc2n1`: the IC50 in data set [1] was > 50 µM; in the data set on A549 it was > 50 µM; with MDA-MB-468 it was > 50 µM; in data set [2], 20.8 µM; in [4], > 100 µM; in data set [5], > 50 µM. For the same compound, the IC50 in [6] was > 100 µM; in [7], > 100 µM; in [8], > 100 µM; in data set [9] it was 15.9 µM; in data set [11], 37.1 µM.
On to `Cn1cc(-c2cnc3ccc(NC(=O)Nc4ccccc4)nc3c2)cn1`, for which the IC50 in data set [1] was > 50 µM; with A549, 3.08 µM; with MDA-MB-468 it was 1.31 µM; in [2], > 100 µM; in data set [4], > 100 µM; in data set [5], 1.37 µM. Besides, the IC50 is > 100 µM in [6]; > 100 µM in data set [7]; > 100 µM in data set [8]; 1.38 µM in data set [9]; > 31.6 µM in data set [11]. This compound also gave a CHI in [3] of 73.3. Besides, the chromatographic logD in [10] was determined as 2.4.
In the case of `CCNC(=O)Nc1ccc2ncc(-c3ccc(OC)c(OC)c3)cc2n1`, the IC50 in data set [1] is > 50 µM; in the data set on A549, > 50 µM; in the data set with MDA-MB-468 it was 21.9 µM; in [2], > 100 µM; in data set [4], > 100 µM; in data set [5] it was > 50 µM. Further, the IC50 was 41.8 µM in data set [6]; > 100 µM in data set [7]; 13.6 µM in [8]; 4.36 µM in data set [9]; > 100 µM in data set [11]. In data set [3], the CHI was found to be 73.3. Further, the solubility in [15] came to 5.7 µM. In data set [16], the remaining at 1 h was 45.4%. The compound also had a chromatographic logD in data set [10] of 2.4.
On to `Cn1cc(-c2cnc3ccc(NC(=O)NC(C)(C)C)nc3c2)cn1`, for which the IC50 was > 50 µM in data set [1]; 1 µM in the data set with A549; 1.96 µM in the data set on MDA-MB-468; 6.05 µM in data set [2]; 4.5 µM in [4]; 0.671 µM in [5]. Also, the IC50 in data set [6] was 7.95 µM; in [7] it was > 100 µM; in data set [8], > 100 µM; in data set [9], 0.651 µM; in [11], > 100 µM. The compound also showed a CHI in data set [3] of 76.1. Further, the chromatographic logD in [10] amounted to 2.5.
As to `COc1cc(-c2cnc3ccc(NC(=O)NC(C)(C)C)nc3c2)ccc1O`, the IC50 was 9.68 µM in [1]; 14.2 µM with A549; 3.89 µM in the data set with MDA-MB-468; > 100 µM in [2]; 80.6 µM in data set [4]; 4.91 µM in data set [5]. Moreover, the IC50 in data set [6] is 42.9 µM; in [7], > 100 µM; in data set [8], > 100 µM; in data set [9], 4.59 µM; in data set [11] it was > 100 µM. Further, in data set [3], the CHI is 79.3. Further, the chromatographic logD in [10] is 2.7.
For `COc1ccc(-c2cnc3ccc(NC(=O)NC(C)(C)C)nc3c2)cc1OC`, the IC50 in [1] was > 50 µM; in the data set with A549, > 50 µM; in the data set on MDA-MB-468 it was > 50 µM; in data set [2] it was > 100 µM; in data set [4] it was > 100 µM; in [5] it was > 50 µM. Besides, the IC50 in data set [6] is 85.5 µM; in [7] it was > 100 µM; in data set [8] it was > 100 µM; in [9], > 50 µM; in [11] it was > 100 µM. This compound also came in with a CHI in data set [3] of 88.8. Besides, in [15], the solubility worked out at 8.5 µM. In data set [16], the remaining at 1 h stood at 70.4%. The compound also displayed a chromatographic logD in data set [10] of 3.2.
